Experimental data reported in US20240425497A1, “Cbl-b Inhibitors and Methods of Use Thereof” (ARCUS BIOSCIENCES, INC., priority 2023, published 2024).
pEC50, pIC50: −log10 of the molar value.

What was measured:
Jurkat cells = assay: IL-2 secretion assay in CD3/CD28-activated Jurkat cells (AlphaLISA); format: cell-based, human; conditions: Homo sapiens, CD3/CD28 activation, 24 h
Protocol: Certain compounds were also evaluated in an IL-2 secretion assay. On the day of the assay, a 16 point, 1:2 master serial dilution of each compound was prepared in Opti-MEM to span a final concentration range of […]. Assays were set up in CORNING® tissue culture-treated 384-well microplates containing 60 nL of each dilution. Jurkat cells grown in RPMI-1640 supplemented with 10% FBS, 1% Glutamax, and 1% Pen/Strep were collected, resuspended in Opti-MEM. 50,000 cells/well and added to the compound plates. After a short spin (1200 rpm for 1 min), the plates were incubated at 37° C. for 1 hour. The cells were activated by adding 15 μL of IMMUNOCULT™ Human CD3/CD28 T Cell Activator (STEMCELL Technologies) diluted in Opti-MEM. After 24 h of incubation at 37° C., aliquots of culture supernatants were transferred to OptiPlate-384 (PerkinElmer) microplates. The level of JIL-2 secretion in the supernatants was then determined using the IL-2 (human) AiphaLISA Detection Kit (PerkinElmer) according to the manufacturer's recommendations. The AiphaLISA signal was measured using an EnVision plate reader (PerkinElmer). EC50 values were determined by fitting the data to a standard 4-parameter logistic equation. See Table 3 for data for select compounds (IL-2 Secretion (EC50)).

Cbl-b = Cbl-b (Homo sapiens (Human), UniProt Q13191); assay: Cbl-b probe displacement HTRF binding assay; conditions: 0.4 nM biotinylated Cbl-b, 150 nM BODIPY probe
Protocol: The affinity with which compounds of the present disclosure bind to Cbl-b was assessed using probe displacement homologous time resolved fluorescence (HTRF) assays. The assays used a BODIPY™ conjugated probe (Example 54 from WO 2020264398) and biotinylated Cbl-b. The assays were performed in assay buffer consisting of 20 mM Hepes, 150 mM NaCl, 0.01% Triton X-100, 0.5 mM TCEP, 0.01% BSA. On the day of the assay, a 20 point, 1:2 master serial dilution of each compound was prepared in DMSO to span a final concentration range of 10 μM to 0 nM. Two hundred nanoliters of diluted compound was added to each well of a 384-well plate. Fifteen microliters of biotinylated-Cbl-b resuspended in assay buffer were added to each well and the plate incubated for 60 minutes at room temperature prior to addition of 5 μL of BODIPY™ probe in assay buffer. Final assay conditions included 0.4 nM of Cbl-b and 150 nM of BODIPY™ probe. After a further 15 minutes of incubation at room temperature, 5 μl of Streptavidin-Terbium cryptate reagent at 5-fold final concentration was added to each well of the 384-well plate. Binding of a probe to Cbl-b results in an increase of HTRF signal. HTRF signal was measured by Envision plate reader, while competition of a compound of the present disclosure with probe results in a decrease of signal. Percentage maximum activity in each test well was calculated based on DMSO (maximum activity, 0% displacement) and no protein control wells (baseline activity, 100% displacement). Binding affinity was determined from a dose response curve fitted using a standard four parameter fit equation. See Table 3 for data for compounds (Cbl-b Binding (IC50)).

Cbl-b, sequence (Q13191 whole entry, species assumed): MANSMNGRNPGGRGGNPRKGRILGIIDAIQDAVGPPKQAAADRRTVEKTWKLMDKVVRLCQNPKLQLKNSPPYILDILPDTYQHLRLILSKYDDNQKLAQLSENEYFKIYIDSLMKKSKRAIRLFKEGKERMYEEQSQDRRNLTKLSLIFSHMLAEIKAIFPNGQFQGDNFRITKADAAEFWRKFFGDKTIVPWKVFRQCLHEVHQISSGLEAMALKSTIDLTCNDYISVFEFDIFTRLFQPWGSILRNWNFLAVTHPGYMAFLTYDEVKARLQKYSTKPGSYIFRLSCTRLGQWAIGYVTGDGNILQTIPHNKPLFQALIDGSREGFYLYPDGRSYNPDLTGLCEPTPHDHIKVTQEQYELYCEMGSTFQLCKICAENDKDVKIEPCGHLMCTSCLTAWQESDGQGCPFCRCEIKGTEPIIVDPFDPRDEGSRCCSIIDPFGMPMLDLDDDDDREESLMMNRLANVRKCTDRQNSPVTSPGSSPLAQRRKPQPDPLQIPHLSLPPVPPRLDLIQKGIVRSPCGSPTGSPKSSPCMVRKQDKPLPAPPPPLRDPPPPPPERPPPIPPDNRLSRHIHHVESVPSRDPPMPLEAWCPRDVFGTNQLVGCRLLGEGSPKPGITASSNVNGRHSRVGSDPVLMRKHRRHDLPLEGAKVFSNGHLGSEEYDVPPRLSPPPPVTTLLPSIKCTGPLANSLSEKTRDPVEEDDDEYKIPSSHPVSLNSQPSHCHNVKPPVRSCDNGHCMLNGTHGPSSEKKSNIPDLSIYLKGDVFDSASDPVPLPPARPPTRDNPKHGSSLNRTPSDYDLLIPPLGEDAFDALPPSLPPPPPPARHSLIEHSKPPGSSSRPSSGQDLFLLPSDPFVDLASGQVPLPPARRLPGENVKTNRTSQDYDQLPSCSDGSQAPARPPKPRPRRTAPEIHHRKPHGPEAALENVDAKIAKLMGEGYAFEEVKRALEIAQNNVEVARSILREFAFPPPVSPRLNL

pEC50 (Jurkat cells)	pIC50 (Cbl-b)	Structure (SMILES)
6.00 to 7.00	> 7.00	CNC(=O)c1cc(F)ccc1-c1cc(C2CC2)nc(-n2cc(C3CC3)c3cc(CN4CCC[C@H](C)C4)[nH]c3c2=O)c1 [Example 6, N-methyl2-[2-(2-{[(S)-3-methyl-1-piperidyl]methyl}-4-cyclopropyl-7-oxo-1,6-dihydro-1,6-diaza-6-indenyl)-6-cyclopropyl-4-pyridyl]-5-fluorobenzamide]
> 7.00	> 7.00	C[C@H]1CCCN(Cc2cc3c(C4CC4)cn(-c4cc(-c5ccc(F)cc5C(=O)N5CCC5)cc(C5CC5)n4)c(=O)c3[nH]2)C1 [Example 7, 2-{[(S)-3-methyl-1-piperidyl]methyl}-6-(4-{2-[(1-azetidinyl)carbonyl]-4-fluorophenyl}-6-cyclopropyl-2-pyridyl)-4-cyclopropyl-1,6-dihydro-1,6-diaza-7-indenone]
< 5.30	6.00 to 7.00	C[C@H]1CCCN(Cc2cc3c(C4CC4)cn(-c4cc(-c5ccc(F)cc5C(=O)N(C)c5ccccc5)cc(C5CC5)n4)c(=O)c3[nH]2)C1 [Example 8, N-methyl-N-phenyl-2-[2-(2-{[(S)-3-methyl-1-piperidyl]methyl}-4-cyclopropyl-7-oxo-1,6-dihydro-1,6-diaza-6-indenyl)-6-cyclopropyl-4-pyridyl]-5-fluorobenzamide]
< 5.30	> 7.00	CC1CCCN1C(=O)c1cc(F)ccc1-c1cc(C2CC2)nc(-n2cc(C3CC3)c3cc(CN4CCC[C@H](C)C4)[nH]c3c2=O)c1 (stereo partly drawn) [Example 9, 2-{[(S)-3-methyl-1-piperidyl]methyl}-4-cyclopropyl-6-(6-cyclopropyl-4-{4-fluoro-2-[(2-methyl-1-pyrrolidinyl)carbonyl]phenyl}-2-pyridyl)-1,6-dihydro-1,6-diaza-7-indenone]
> 7.00	> 7.00	C[C@H]1CCCN(Cc2cc3c(C4CC4)cn(-c4cc(-c5ccc(F)cc5C(=O)N5CC(F)C5)cc(C5CC5)n4)c(=O)c3[nH]2)C1 [Example 10, 2-{[(S)-3-methyl-1-piperidyl]methyl}-4-cyclopropyl-6-(6-cyclopropyl-4-{4-fluoro-2-[(3-fluoro-1-azetidinyl)carbonyl]phenyl}-2-pyridyl)-1,6-dihydro-1,6-diaza-7-indenone]
6.00 to 7.00	> 7.00	COC1CN(C(=O)c2cc(F)ccc2-c2cc(C3CC3)nc(-n3cc(C4CC4)c4cc(CN5CCC[C@H](C)C5)[nH]c4c3=O)c2)C1 [Example 11, 2-{[(S)-3-methyl-1-piperidyl]methyl}-4-cyclopropyl-6-(6-cyclopropyl-4-{4-fluoro-2-[(3-methoxy-1-azetidinyl)carbonyl]phenyl}-2-pyridyl)-1,6-dihydro-1,6-diaza-7-indenone]
6.00 to 7.00	6.00 to 7.00	C[C@H]1CCCN(Cc2cc3c(C4CC4)cn(-c4cc(-c5ccc(F)cc5C(=O)NCC(F)(F)F)cc(C5CC5)n4)c(=O)c3[nH]2)C1 [Example 12, N-2,2,2-trifluoroethyl2-[2-(2-{[(S)-3-methyl-1-piperidyl]methyl}-4-cyclopropyl-7-oxo-1,6-dihydro-1,6-diaza-6-indenyl)-6-cyclopropyl-4-pyridyl]-5-fluorobenzamide]
6.00 to 7.00	> 7.00	CCN(C)C(=O)c1cc(F)ccc1-c1cc(C2CC2)nc(-n2cc(C3CC3)c3cc(CN4CCC[C@H](C)C4)[nH]c3c2=O)c1 [Example 13, N-ethyl-N-methyl2-[2-(2-{[(S)-3-methyl-1-piperidyl]methyl}-4-cyclopropyl-7-oxo-1,6-dihydro-1,6-diaza-6-indenyl)-6-cyclopropyl-4-pyridyl]-5-fluorobenzamide]
> 7.00	> 7.00	C[C@H]1CCCN(Cc2cc3c(C4CC4)cn(-c4cc(-c5ccc(F)cc5C(=O)N5CC(F)(F)C5)cc(C5CC5)n4)c(=O)c3[nH]2)C1 [Example 14, 2-{[(S)-3-methyl-1-piperidyl]methyl}-4-cyclopropyl-6-(6-cyclopropyl-4-{2-[(3,3-difluoro-1-azetidinyl)carbonyl]-4-fluorophenyl}-2-pyridyl)-1,6-dihydro-1,6-diaza-7-indenone]
6.00 to 7.00	> 7.00	CC1CCN1C(=O)c1cc(F)ccc1-c1cc(C2CC2)nc(-n2cc(C3CC3)c3cc(CN4CCC[C@H](C)C4)[nH]c3c2=O)c1 (stereo partly drawn) [Example 15, 2-{[(S)-3-methyl-1-piperidyl]methyl}-4-cyclopropyl-6-(6-cyclopropyl-4-{4-fluoro-2-[(2-methyl-1-azetidinyl)carbonyl]phenyl}-2-pyridyl)-1,6-dihydro-1,6-diaza-7-indenone]
> 7.00	> 7.00	C[C@H]1CCCN(Cc2cc3c(C4CC4)cn(-c4cc(-c5ccc(F)cc5C(=O)N5CC(C#N)C5)cc(C5CC5)n4)c(=O)c3[nH]2)C1 [Example 16, 1-{2-[2-(2-{[(S)-3-methyl-1-piperidyl]methyl}-4-cyclopropyl-7-oxo-1,6-dihydro-1,6-diaza-6-indenyl)-6-cyclopropyl-4-pyridyl]-5-fluorobenzoyl}-3-azetidinecarbonitrile]
> 7.00	> 7.00	O=C(c1cc(F)ccc1-c1cc(C2CC2)nc(-n2cc(C3CC3)c3cc(CN[C@H]4CCC[C@H]4O)[nH]c3c2=O)c1)N1CC(F)C1 [Example 17, 2-{[(1S,2R)-2-hydroxycyclopentylamino]methyl}-4-cyclopropyl-6-(6-cyclopropyl-4-{4-fluoro-2-[(3-fluoro-1-azetidinyl)carbonyl]phenyl}-2-pyridyl)-1,6-dihydro-1,6-diaza-7-indenone]
6.00 to 7.00	6.00 to 7.00	C[C@H]1CCCN(Cc2cc3c(C4CC4)cn(-c4cc(-c5ccc(F)cc5C(N)=O)cc(C5CC5)n4)c(=O)c3[nH]2)C1 [Example 18, 2-[2-(2-{[(S)-3-methyl-1-piperidyl]methyl}-4-cyclopropyl-7-oxo-1,6-dihydro-1,6-diaza-6-indenyl)-6-cyclopropyl-4-pyridyl]-5-fluorobenzamide]
6.00 to 7.00	> 7.00	C[C@H]1CCCN(Cc2cc3c(C#N)cn(-c4cc(-c5ccc(F)c(F)c5C(=O)N(C)C)cc(C5CC5)n4)c(=O)c3[nH]2)C1 [Example 19, N,N-dimethyl6-[2-(2-{[(S)-3-methyl-1-piperidyl]methyl}-4-cyano-7-oxo-1,6-dihydro-1,6-diaza-6-indenyl)-6-cyclopropyl-4-pyridyl]-2,3-difluorobenzamide]
5.30 to 6.00	6.00 to 7.00	C[C@H]1CCCN(Cc2cc3c(C#N)cn(-c4cc(-c5cccnc5C(=O)N(C)C)cc(C5CC5)n4)c(=O)c3[nH]2)C1 [Example 20, N,N-dimethyl-2′-(2-{[(S)-3-methyl-1-piperidyl]methyl}-4-cyano-7-oxo-1,6-dihydro-1,6-diaza-6-indenyl)-6′-cyclopropyl-[3,4′-bipyridyl]-2-carboxamide]
> 7.00	> 7.00	C[C@H]1CCCN(Cc2cc3c(C#N)cn(-c4cc(-c5ccc(F)cc5C(=O)N5CC(F)C5)cc(C5CC5)n4)c(=O)c3[nH]2)C1 [Example 21, 2-{[(S)-3-methyl-1-piperidyl]methyl}-6-(6-cyclopropyl-4-{4-fluoro-2-[(3-fluoro-1-azetidinyl)carbonyl]phenyl}-2-pyridyl)-7-oxo-1,6-dihydro-1,6-diaza-4-indenecarbonitrile]
6.00 to 7.00	> 7.00	C[C@H]1CCCN(Cc2cc3c(C#N)cn(-c4cc(C#N)cc(-c5ccc(F)cc5C(=O)N5CC(F)C5)c4)c(=O)c3[nH]2)C1 [Example 22, 2-{[(S)-3-methyl-1-piperidyl]methyl}-6-{5-cyano-4′-fluoro-2′-[(3-fluoro-1-azetidinyl)carbonyl]-3-biphenylyl}-7-oxo-1,6-dihydro-1,6-diaza-4-indenecarbonitrile]
5.30 to 6.00	6.00 to 7.00	C[C@H]1CCCN(Cc2cc3c(C#N)cn(-c4cc(-c5ccc(F)cc5C(=O)N5CC(F)C5)cc(C(F)(F)F)c4)c(=O)c3[nH]2)C1 [Example 23, 2-{[(S)-3-methyl-1-piperidyl]methyl}-6-{4′-fluoro-2′-[(3-fluoro-1-azetidinyl)carbonyl]-5-(trifluoromethyl)-3-biphenylyl}-7-oxo-1,6-dihydro-1,6-diaza-4-indenecarbonitrile]
